This is an account of results in patent publication US9518038B2, “Condensation product of theanine derivative and carboxylic acid coumarin derivative, its intermediate, preparation method and use thereof” (SHANDONG YINGDONG YINGHAO BIOTECHNOLOGY, INC., priority 2012, dated 2016).

In assay [1] the test system is human liver cancer cells HepG2. Kind of assay: MTT growth inhibition, HepG2 cells. To be noted: 72 h after treatment, read-out: Drug concentration (IC50) at which 50% cancer cells survived. The class given is cell-based.
Assay [2] has as its system human colon cancer cells HT29. Kind of assay: MTT growth inhibition, HT29 cells. The class given is cell-based. To be noted: HT-29, 72 h after treatment, read-out: Drug concentration (IC50) at which 50% cancer cells survived.
Assay [3] relates to human liver cancer cells SMMC7721 xenograft. Kind of assay: In-vivo growth of SMMC7721 xenografts in nude mice. The arrangement: species or system BALB/c nude mice. To be noted: Mus musculus, SMMC-7721, ip, S-7721 xenograft, vs DMSO solvent control, read-out: Curative effect (inhibition rate %) of tumor weight. The method, then:
(§1) RPMI1640 and DMEM culture solutions: Hyclone Company; inactivated fetal bovine serum: Hyclone Company, preserved at −20° C.; trypsin: Amersco Company; and 0.4% trypan blue: Sigma Company;
(§2) (3) Observation of growth of tumors in nude mice: the activities (including food intake, traits of urine and stool, mental state and the like) of the nude mice and the tumor growth time and growth situation of the transplanted tumors were observed every day, the body weight and the size of the tumors were measured once every 2-3 days. The long diameter a and the short diameter b (mm) of each tumor were measured by a vernier caliper to calculate the volume, wherein the volume V=π1/2·ab^2 (mm^3);
(§3) (4) sacrifice of animals: the mice were anesthetized and photoed after treatment experiments; the nude mice were sacrificed by breaking neck, the tumor tissues were stripped under sterile conditions and the weight of the tumors was weighed; and the effects of the drugs on pathology and toxicity of the various organs and tissues were detected.

Another assay concerns K-Ras. The assay is described as follows: Western Blotting, K-Ras level. The class given is cell-based. As to conditions: human liver cancer cells, Lewis lung cancer cells and other cancer cell lines and tumor tissues, read-out: Effective concentration (IC50) for inhibition of K-Ras. From the text:
(§4) Antibodies: primary antibodies of VEGFR, EGFR, c-Met, K-Ras, H-Ras, Akt, NF-κB, Cyclin D1, ER-alpha, Dvl-1, Dvl-2, Dvl-3, MMP-9, MMP2, β-catenin, Bcl-2, Bax, p53, p21, E-cadherin and Caspase3 protein, purchased from American Cell Signaling Technology Company and Santa Cruz Technology Company; and H3 acetylation, H4 acetylation and HDAC (HDAC3, HDAC4 and the like) Antibody Sample Kits, purchased from Cell Signaling Technology Company of the U.S.
(§5) (3) polyacrylamide gel electrophoresis (SDS-PAGE): an equal amount of protein lysate sample was used to separate protein, film transfer, and blocking, treated with appropriate primary antibodies and secondary antibodies in sequence, and the film was washed, then the color was developed with ECL kit, and a blot protein band was detected by exposure of an X-ray film; and a Gel-Pro Analyzer was used for quantitative analysis of gray degree, optical density value of the control group and the drug treatment group in various concentration were respectively compared with that of internal reference, the obtained ratios were respectively compared with the control group, and the protein expression level was semi-quantified.

In another assay the test system is VEGFR2. Kind of assay: Western Blotting, VEGFR2 level. The class given is cell-based. To be noted: human liver cancer cells, Lewis lung cancer cells and other cancer cell lines and tumor tissues, read-out: Effective concentration (IC50) for inhibition of VEGFR2.
Source text: as §4, §5

The next assay has as its system VEGFR1. The assay is described as follows: Western Blotting, VEGFR1 level. The class given is cell-based. To be noted: human liver cancer cells, Lewis lung cancer cells and other cancer cell lines and tumor tissues, read-out: Effective concentration (IC50) for inhibition of VEGFR1.
Source text: as §4, §5

The test system of assay [4] is human gastric cancer cells BGC-823. Kind of assay: MTT growth inhibition, BGC-823 cells. The class given is cell-based. To be noted: 72 h after treatment, read-out: Drug concentration (IC50) at which 50% cancer cells survived.
Assay [5] has as its system human cervical cancer cells Hela xenograft. The assay is described as follows: In-vivo growth of Hela xenografts in nude mice. On the set-up: species or system BALB/c nude mice. As to conditions: Mus musculus, ip, vs DMSO solvent control, read-out: Curative effect (inhibition rate %) of tumor weight. The method, then: as §1, §2, §3
The subject of another assay is HDAC4. Kind of assay: Western Blotting, HDAC4 level. As to conditions: human liver cancer cells, Lewis lung cancer cells and other cancer cell lines and tumor tissues, read-out: Effective concentration (IC50) for inhibition of HDAC4. The class given is cell-based.
Source text: as §4, §5

The test system of assay [6] is Lewis lung cancer (highly metastatic mouse lung cancer) cells. The assay is described as follows: Mouse Lewis lung cancer metastasis model. The class given is in vivo, C57/BL6J black mice. To be noted: Lewis lung carcinoma, ip, LLC, vs DMSO solvent control, read-out: tumor lung metastasis inhibition rate % of mouse Lewis lung cancer. The method, then: as §1, §3
[7] abbreviates: 60 mg/kg intraperitoneal once a day.
The mark [8] stands for this setting: 90 mg/kg intraperitoneal once a day.

Regarding `CCNC(=O)CC[C@@H](NC(=O)c1cc2cc(Br)cc(Br)c2oc1=O)C(=O)OCC` [Compound Ih, (R)-2-(6,8-dibromo-2-oxo-2H-benzopyran-3-carboxamido)-5-ethylamino-5-oxo-pentanoic ethyl ester], the IC50 in assay [1] is 56 µM; in [2], 108 µM; in the assay on K-Ras it was below 65 µM; in the assay with VEGFR2 it was below 100 µM; in the assay on VEGFR1, below 100 µM; in assay [4], 85 µM. The IC50 with HDAC4 is below 50 µM. For the same compound, the values for the inhibition in vivo at 60 mg/kg in [3] (setting [7]), in assay [5] (setting [7]) and in [6] (setting [7]) were 57.7%, 62.9% and 77.9%, respectively. Also, the inhibition in vivo at 90 mg/kg in [3] (setting [8]) is 78.7%; in assay [5] (setting [8]), 72.6%; in [6] (setting [8]), 80.7%.
